From patent US20120309798A1, “Tumour Treatment Agents and Method” (Vivolux AB, priority 2009, published 2012)

The compounds below were run on solid and hematological patient tumor samples (assay: Relative effect on solid and hematological tumor samples (S/H ratio), FMCA). Conditions: n=98 patient samples; FIG. 2b.
Assay type: cell-based, human
Excerpt: (§1) Cell culture. Patient tumor samples (98) and preparations (4) of normal peripheral blood mononuclear cells (PBMC), detailed in Table 1, were used to determine the activity of VLX50 and, for comparison, six other cytotoxic drugs chosen to represent different mechanistic classes.
The tumor samples were obtained by bone marrow/peripheral blood sampling, routine surgery or diagnostic biopsy. Leukemic cells and PBMCs were isolated by 1.077 g ml-1 Ficoll-Paque centrifugation (Larsson et al., 1992). Tumor tissue from solid tumor samples was minced into small pieces and tumor cells were isolated by collagenase dispersion followed by Percoll density gradient centrifugation (Csoka et al., 1994). […] Cell viability was determined by trypan blue exclusion test and the proportion of tumor cells in the preparation was judged by inspection of May-Grunvald-Giemsa stained cytospin slides (FIG. 1a). […]
Fluorometric Microculture Cytotoxicity Assay. The Fluorometric Microculture Cytotoxicity Assay, FMCA, described in detail previously (Lindhagen et al., 2008), is based on measurement of fluorescence generated from hydrolysis of fluorescein diacetate (FDA) to fluorescein by cells with intact plasma membranes. […] Quality criteria for a successful assay included a mean coefficient of variation of less than 30% in the control and a fluorescence signal in control wells of more than 5 times the blank. […]

SMILES	S/H ratio (ratio between total response rates for solid and hematological samples)
N.N.[Cl][Pt][Cl] [cisplatin, reference compound]	1.2

Each compound was assayed on cells from CLL and normal PBMC (assay: Tumor cell specificity: drug effect in CLL cells versus normal PBMC, FMCA). Conditions: PBMC n=4, CLL n=9; t-test, p<0.05; FIG. 2c.
Assay type: cell-based, human
Excerpt: as §1
The tumor samples were obtained by bone marrow/peripheral blood sampling, routine surgery or diagnostic biopsy. Leukemic cells and PBMCs were isolated by 1.077 g ml-1 Ficoll-Paque centrifugation (Larsson et al., 1992). Tumor tissue from solid tumor samples was minced into small pieces and tumor cells were isolated by collagenase dispersion followed by Percoll density gradient centrifugation (Csoka et al., 1994). The sampling of primary tumor cells was approved by the local ethics committee at Uppsala University Hospital. Cell viability was determined by trypan blue exclusion test and the proportion of tumor cells in the preparation was judged by inspection of May-Grunvald-Giemsa stained cytospin slides (FIG. 1a). All samples used in this study contained more than 70% tumor cells.
Fluorometric Microculture Cytotoxicity Assay. The Fluorometric Microculture Cytotoxicity Assay, FMCA, described in detail previously (Lindhagen et al., 2008), is based on measurement of fluorescence generated from hydrolysis of fluorescein diacetate (FDA) to fluorescein by cells with intact plasma membranes. Cells were seeded in the drug-prepared 384-well plates using the pipetting robot Precision 2000 (Bio-Tek Instruments Inc., Winooski, Vt.). The number of cells per well were 2500-5000. Two columns without drugs served as controls and one column with medium only served as blank. The plates were incubated for 72 h and then transferred to an integrated HTS SAIGAN Core System consisting of an ORCA robot (Beckman Coulter) with CO2 incubator (Cytomat 2C, Kendro, Sollentuna, Sweden), dispensor module (Multidrop 384, Titertek, Huntsville, Ala.), washer module (ELx 405, Bio-Tek Instruments Inc), delidding station, plate hotels, barcode reader (Beckman Coulter), liquid handler (Biomek 2000, Beckman Coulter) and a multipurpose reader (FLUOstar Optima, BMG Labtech GmbH, Offenburg, Germany) for automated FMCA. Quality criteria for a successful assay included a mean coefficient of variation of less than 30% in the control and a fluorescence signal in control wells of more than 5 times the blank.
Dose-response data were analyzed using calculated survival index values and the software program GraphPadPrism4 (GraphPad Software Inc., San Diego, Calif., USA). Data was processed using non-linear regression to a standard sigmoidal dose-response model to obtain IC50-values (inhibitory concentration 50%).
In FIG. 2a the response rates for VLX50 at 4 μM for the patient samples are listed according to diagnoses. […] Lung cancer, AML and CML had intermediate response rates. The relative effect of VLX50 and six standard cytotoxic drugs, in solid and hematological tumor samples, expressed as the S/H ratio, is shown in FIG. 2b. […] The results for the standard drugs are consistent with their main clinical use.

SMILES	Activity in CLL compared with PBMC
N.N.[Cl][Pt][Cl] [cisplatin, reference compound]	No difference
Nc1ccn([C@@H]2O[C@H](CO)[C@@H](O)[C@@H]2O)c(=O)n1 [cytarabin]	significantly higher activity in PBMC than in CLL cells
COc1cccc2c1C(=O)c1c(O)c3c(c(O)c1C2=O)C[C@@](O)(C(=O)CO)C[C@@H]3O[C@H]1C[C@H](N)[C@H](O)[C@H](C)O1 [doxorubicin]	No difference
COc1cc([C@@H]2c3cc4c(cc3[C@@H](O[C@@H]3O[C@@H]5CO[C@@H](C)O[C@H]5[C@H](O)[C@H]3O)[C@H]3COC(=O)[C@H]23)OCO4)cc(OC)c1O [etoposide]	No difference
N[C@@H](Cc1ccc(N(CCCl)CCCl)cc1)C(=O)O [melphalan]	significantly higher activity in PBMC than in CLL cells
CC[C@]1(O)C[C@H]2CN(CCc3c([nH]c4ccccc34)[C@@](C(=O)OC)(c3cc4c(cc3OC)N(C=O)[C@H]3[C@@](O)(C(=O)OC)[C@H](OC(C)=O)[C@]5(CC)C=CCN6CC[C@]43[C@@H]65)C2)C1 [vincristine]	significantly more active in CLL than in PBMC
